Laboratory results published in PubChem BioAssay (NCI).
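Method: 48-hour compound exposure of cells in 96-well plates, five concentrations, linear interpolation of endpoints. GI50: concentration for 50% inhibition of growth. The concentration for full growth arrest is given as TGI.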

How the values were obtained:
Experiment in all cases: NCI anticancer screen, dose series, 48 h
786-0 renal = system: 786-0 renal
A498 renal = system: A498 renal
A549 NSCLC = system: A549 NSCLC
ACHN renal = system: ACHN renal
BT-549 breast = system: BT-549 breast
CAKI-1 renal = system: CAKI-1 renal
CCRF-CEM leukemia = system: CCRF-CEM leukemia
COLO 205 colon = system: COLO 205 colon
DU-145 prostate = system: DU-145 prostate
EKVX NSCLC = system: EKVX NSCLC
HCC-2998 colon = system: HCC-2998 colon
HCT-116 colon = system: HCT-116 colon
HCT-15 colon = system: HCT-15 colon
HL-60(TB) leukemia = system: HL-60(TB) leukemia
HOP-62 NSCLC = system: HOP-62 NSCLC
HOP-92 NSCLC = system: HOP-92 NSCLC
HS 578T breast = system: HS 578T breast
HT29 colon = system: HT29 colon
IGROV1 ovarian = system: IGROV1 ovarian
K-562 leukemia = system: K-562 leukemia
KM12 colon = system: KM12 colon
LOX IMVI melanoma = system: LOX IMVI melanoma
M14 melanoma = system: M14 melanoma
MALME-3M melanoma = system: MALME-3M melanoma
MCF7 breast = system: MCF7 breast
MDA-MB-231 breast = system: MDA-MB-231 breast
MDA-MB-435 = system: MDA-MB-435
NCI-H226 lung = system: NCI-H226 lung
NCI-H23 lung = system: NCI-H23 lung
NCI-H460 lung = system: NCI-H460 lung
NCI-H522 lung = system: NCI-H522 lung
NCI/ADR-RES ovarian = system: NCI/ADR-RES ovarian
OVCAR-3 ovarian = system: OVCAR-3 ovarian
OVCAR-4 ovarian = system: OVCAR-4 ovarian
OVCAR-5 ovarian = system: OVCAR-5 ovarian
OVCAR-8 ovarian = system: OVCAR-8 ovarian
PC-3 prostate = system: PC-3 prostate
RPMI-8226 leukemia = system: RPMI-8226 leukemia
RXF 393 renal = system: RXF 393 renal
SF-268 CNS = system: SF-268 CNS
SF-295 CNS = system: SF-295 CNS
SF-539 CNS = system: SF-539 CNS
SK-MEL-2 melanoma = system: SK-MEL-2 melanoma
SK-MEL-28 melanoma = system: SK-MEL-28 melanoma
SK-MEL-5 melanoma = system: SK-MEL-5 melanoma
SK-OV-3 ovarian = system: SK-OV-3 ovarian
SN12C renal = system: SN12C renal
SNB-19 CNS = system: SNB-19 CNS
SNB-75 CNS = system: SNB-75 CNS
SR leukemia = system: SR leukemia
SW-620 colon = system: SW-620 colon
T-47D breast = system: T-47D breast
TK-10 renal = system: TK-10 renal
U251 CNS = system: U251 CNS
UACC-257 melanoma = system: UACC-257 melanoma
UACC-62 melanoma = system: UACC-62 melanoma
UO-31 renal = system: UO-31 renal

Cc1ccnc2c1ccc1c(C)ccnc12
GI50 (786-0 renal): 327 nM | TGI (786-0 renal): 10900 nM | GI50 (A498 renal): 327 nM | TGI (A498 renal): 3710 nM | GI50 (A549 NSCLC): 386 nM | TGI (A549 NSCLC): 11400 nM | GI50 (ACHN renal): 357 nM | TGI (ACHN renal): 10500 nM | GI50 (BT-549 breast): 521 nM | TGI (BT-549 breast): 14300 nM | GI50 (CAKI-1 renal): 209 nM | TGI (CAKI-1 renal): 10000 nM | GI50 (CCRF-CEM leukemia): 361 nM | TGI (CCRF-CEM leukemia): 3000 nM | GI50 (COLO 205 colon): 568 nM | TGI (COLO 205 colon): 13000 nM | GI50 (DU-145 prostate): 501 nM | TGI (DU-145 prostate): 14200 nM | GI50 (EKVX NSCLC): 389 nM | TGI (EKVX NSCLC): 12700 nM | GI50 (HCC-2998 colon): 381 nM | TGI (HCC-2998 colon): 15100 nM | GI50 (HCT-116 colon): 418 nM | TGI (HCT-116 colon): 13000 nM | GI50 (HCT-15 colon): 383 nM | TGI (HCT-15 colon): 10400 nM | GI50 (HL-60(TB) leukemia): 328 nM | TGI (HL-60(TB) leukemia): 2390 nM | GI50 (HOP-62 NSCLC): 508 nM | TGI (HOP-62 NSCLC): 12600 nM | GI50 (HOP-92 NSCLC): 656 nM | TGI (HOP-92 NSCLC): 16100 nM | GI50 (HS 578T breast): 3950 nM | TGI (HS 578T breast): > 100000 nM | GI50 (HT29 colon): 491 nM | TGI (HT29 colon): 12600 nM | GI50 (IGROV1 ovarian): 471 nM | TGI (IGROV1 ovarian): 13600 nM | GI50 (K-562 leukemia): 395 nM | TGI (K-562 leukemia): 25900 nM | GI50 (KM12 colon): 504 nM | TGI (KM12 colon): 12000 nM | GI50 (LOX IMVI melanoma): 367 nM | TGI (LOX IMVI melanoma): 4660 nM | GI50 (M14 melanoma): 294 nM | TGI (M14 melanoma): 10200 nM | GI50 (MALME-3M melanoma): 364 nM | TGI (MALME-3M melanoma): 5270 nM | GI50 (MCF7 breast): 343 nM | TGI (MCF7 breast): 12400 nM | GI50 (MDA-MB-231 breast): 673 nM | TGI (MDA-MB-231 breast): 21300 nM | GI50 (MDA-MB-435): 481 nM | TGI (MDA-MB-435): 13100 nM | GI50 (NCI-H226 lung): 412 nM | TGI (NCI-H226 lung): 8210 nM | GI50 (NCI-H23 lung): 741 nM | TGI (NCI-H23 lung): 20200 nM | GI50 (NCI-H460 lung): 339 nM | TGI (NCI-H460 lung): 11300 nM | GI50 (NCI-H522 lung): 608 nM | TGI (NCI-H522 lung): 4970 nM | GI50 (NCI/ADR-RES ovarian): 204 nM | TGI (NCI/ADR-RES ovarian): 1790 nM | GI50 (OVCAR-3 ovarian): 526 nM | TGI (OVCAR-3 ovarian): 11400 nM | GI50 (OVCAR-4 ovarian): 316 nM | TGI (OVCAR-4 ovarian): 4230 nM | GI50 (OVCAR-5 ovarian): 750 nM | TGI (OVCAR-5 ovarian): 19000 nM | GI50 (OVCAR-8 ovarian): 397 nM | TGI (OVCAR-8 ovarian): 14100 nM | GI50 (PC-3 prostate): 430 nM | TGI (PC-3 prostate): 15500 nM | GI50 (RPMI-8226 leukemia): 468 nM | TGI (RPMI-8226 leukemia): 14300 nM | GI50 (RXF 393 renal): 729 nM | TGI (RXF 393 renal): 15100 nM | GI50 (SF-268 CNS): 454 nM | TGI (SF-268 CNS): 14600 nM | GI50 (SF-295 CNS): 371 nM | TGI (SF-295 CNS): 11700 nM | GI50 (SF-539 CNS): 316 nM | TGI (SF-539 CNS): 5060 nM | GI50 (SK-MEL-2 melanoma): 504 nM | TGI (SK-MEL-2 melanoma): 18300 nM | GI50 (SK-MEL-28 melanoma): 491 nM | TGI (SK-MEL-28 melanoma): 14200 nM | GI50 (SK-MEL-5 melanoma): 303 nM | TGI (SK-MEL-5 melanoma): 11800 nM | GI50 (SK-OV-3 ovarian): 526 nM | TGI (SK-OV-3 ovarian): 9610 nM | GI50 (SN12C renal): 441 nM | TGI (SN12C renal): 13100 nM | GI50 (SNB-19 CNS): 592 nM | TGI (SNB-19 CNS): 13900 nM | GI50 (SNB-75 CNS): 840 nM | TGI (SNB-75 CNS): 14600 nM | GI50 (SR leukemia): 382 nM | TGI (SR leukemia): > 100000 nM | GI50 (SW-620 colon): 429 nM | TGI (SW-620 colon): 15900 nM | GI50 (T-47D breast): 883 nM | TGI (T-47D breast): 12600 nM | GI50 (TK-10 renal): 588 nM | TGI (TK-10 renal): 14600 nM | GI50 (U251 CNS): 419 nM | TGI (U251 CNS): 11500 nM | GI50 (UACC-257 melanoma): 508 nM | TGI (UACC-257 melanoma): 7600 nM | GI50 (UACC-62 melanoma): 288 nM | TGI (UACC-62 melanoma): 1030 nM | GI50 (UO-31 renal): 246 nM | TGI (UO-31 renal): 2910 nM
